Laboratory results as given in patent US20230331731A1, “CRYSTAL FORM OF PYRROLO HETEROCYCLIC DERIVATIVE AND PREPARATION METHOD THEREFOR” (Jiangsu Hengrui Pharmaceuticals Co., Ltd., priority 2020, published 2023).

How the values were obtained:
Format in all cases: physicochemical
[1] = DVS (dynamic vapor sorption) analysis
Description: DVS refers to dynamic vapor sorption: The measurement was conducted on SMS DVS Advantage; at 25° C., the humidity was changed as follows: 50%-95%-0%-95%-50%, in steps of 10% (5% for the last step) (specific humidity ranges are shown in corresponding graphs, and those listed here were used in most cases); the criterion was dm/dt being no greater than 0.002%.

[2] = Influencing factor stability study
[3] = Long-term/accelerated stability study
Description: 1. The hydrobromide in crystal form α was left to stand under 25° C., 60% RH conditions and 40° C., 75% RH conditions to investigate its stability.
4. The fumarate in crystal form II was subjected to 6-month long-term (25° C., 60% RH) and accelerated (40° C., 75% RH) stability studies.

[4] = 40° C., open, 30 days (5/10/30-day study)
[5] = 60° C., open, 30 days (5/10/30-day study)
[6] = 4500 Lux, open, 30 days (5/10/30-day study)
[7] = RH 75%, open, 30 days (5/10/30-day study)

Compound: Cn1nccc1Nc1nccc(-c2cc3n(c2)C(=O)N([C@H](CO)c2cccc(Cl)c2)C3)n1.O=C(O)/C=C/C(=O)O [Fumarate in crystal form II]
- moisture-absorption weight gain ([1]; accelerated conditions, 70% RH): about 2.75%
- moisture-absorption weight gain ([1]; extreme conditions, 90% RH): about 3.85%
- moisture-absorption weight gain ([1]; normal conditions, 25° C., 60% RH): about 2.38%
- crystal form after DVS analysis ([1]; re-examined after DVS): did not change
- Color and appearance ([2]; 40° C., open, 5 days): White solid
- Purity ([2]; 40° C., open, 5 days): 99.6%
- Color and appearance ([2]; 40° C., open, 10 days): White solid
- Purity ([2]; 40° C., open, 10 days): 99.5%
- Color and appearance [2, 4]: White solid
- Purity [2, 4]: 99.2%
- Color and appearance ([2]; 60° C., open, 5 days): White solid
- Purity ([2]; 60° C., open, 5 days): 99.5%
- Color and appearance ([2]; 60° C., open, 10 days): White solid
- Purity ([2]; 60° C., open, 10 days): 99.5%
- Color and appearance [2, 5]: White solid
- Purity [2, 5]: 98.0%
- Color and appearance ([2]; 4500 Lux, open, 5 days): White solid
- Purity ([2]; 4500 Lux, open, 5 days): 99.6%
- Color and appearance ([2]; 4500 Lux, open, 10 days): White solid
- Purity ([2]; 4500 Lux, open, 10 days): 99.6%
- Color and appearance [2, 6]: White solid
- Purity [2, 6]: 98.4%
- Color and appearance ([2]; Initial, 0 days (30-day study)): White solid
- Purity ([2]; Initial, 0 days (30-day study)): 99.7%
- Color and appearance ([2]; RH 75%, open, 5 days): White solid
- Purity ([2]; RH 75%, open, 5 days): 99.7%
- Weight gain ([2]; RH 75%, open, 5 days): 0.54%
- Color and appearance ([2]; RH 75%, open, 10 days): White solid
- Purity ([2]; RH 75%, open, 10 days): 99.7%
- Weight gain ([2]; RH 75%, open, 10 days): 1.03%
- Weight gain ([2]; RH 75%, open, 30 days): 1.42%
- Color and appearance [2, 7]: White solid
- Purity [2, 7]: 99.7%
- Color and appearance ([2]; RH 90%, open, 5 days): White solid
- Purity ([2]; RH 90%, open, 5 days): 99.7%
- Weight gain ([2]; RH 90%, open, 5 days): 1.16%
- Color and appearance ([2]; RH 90%, open, 10 days): White solid
- Purity ([2]; RH 90%, open, 10 days): 99.7%
- Weight gain ([2]; RH 90%, open, 10 days): 2.77%
- Color and appearance ([2]; RH 90%, open, 30 days): White solid
- Purity ([2]; RH 90%, open, 30 days): 99.7%
- Weight gain ([2]; RH 90%, open, 30 days): 3.97%
- physical and chemical stability (conclusion) ([2]; high-temperature conditions (40° C. and 60° C.) and high-humidity conditions (75% and 92.5%), 30 days): relatively good physical and chemical stability
- Purity, 1 month ([3]; 25° C., 60%RH): 99.7%
- Purity, 2 months ([3]; 25° C., 60%RH): 99.7%
- Purity, 3 months ([3]; 25° C., 60%RH): 99.7%
- Purity, 6 months ([3]; 25° C., 60%RH, 6 months): 99.7%
- Purity, 1 month ([3]; 40° C., 75%RH): 99.7%
- Purity, 2 months ([3]; 40° C., 75%RH): 99.7%
- Purity, 3 months ([3]; 40° C., 75%RH): 99.7%
- Purity, 6 months ([3]; 40° C., 75%RH, 6 months): 99.7%
- Purity, Initial ([3]; Initial): 99.7%
- physical and chemical stability (conclusion) ([3]; long-term (25° C., 60% RH) and accelerated (40° C., 75% RH) conditions, 6 months): good physical and chemical stability
